Data as given in US9302999B2, “Substituted triazoles as herbicides” (E. I. DU PONT DE NEMOURS AND COMPANY, priority 2012, dated 2016).

Tests used:
Assay type in all cases: in vivo
[1] = system: cocklebur (common cocklebur, Xanthium strumarium); test: Test C pre-/postemergence: cocklebur
Procedure, shortened: (§1)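 Visual injury scored 0–100 (100 = complete control) against untreated controls after 13–15 greenhouse days. Surfactant-containing solvent formulations applied either to soil after sowing (loam/sand) or over 1- to 4-leaf plants, 2–18 cm tall.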

[2] = system: wheat, spring (spring wheat, Triticum aestivum); test: Test D pre-/postemergence: wheat, spring
Source text: (§2) Seeds of plant species selected from bluegrass (annual bluegrass, Poa annua), blackgrass (Alopecurus myosuroides), canarygrass (Phalaris minor), chickweed (common chickweed, Stellaria media), galium (catchweed bedstraw, Galium aparine), bromegrass, downy (downy bromegrass, Bromus tectorum), field poppy (Papaver rhoeas), field violet (Viola arvensis), foxtail, green (green foxtail, Setaria viridis), deadnettle (henbit deadnettle, Lamium amplexicaule), ryegrass, Italian (Italian ryegrass, Lolium multiflorum), kochia (Kochia scoparia), lambsquarters (Chenopodium album), oilseed rape (Brassica napus), pigweed (Amaranthus retroflexus), Russian thistle (Salsola iberica), chamomile (scentless chamomile, Matricaria inodora), speedwell (bird's-eye speedwell, Veronica persica), barley, spring (spring barley, Hordeum vulgare), wheat, spring (spring wheat, Triticum aestivum), buckwheat, wild (wild buckwheat, Polygonum convolvulus), mustard, wild (wild mustard, Sinapis arvensis), oat, wild (wild oat, Avena fatua), radish, wild (wild radish, Raphanus raphanistrum), windgrass (Apera spica-venti), barley, winter (winter barley, Hordeum vulgare), and wheat, winter (winter wheat, Triticum aestivum) were planted into a silt loam soil and treated preemergence with test chemicals formulated in a non-phytotoxic solvent mixture which included a surfactant. At the same time, these same crop and weed species were planted in pots containing the planting medium comprising spaghnum peat moss, vermiculite, wetting agent and starter nutrients and treated with postemergence applications of the test chemicals formulated in the same manner. Plants ranged in height from 2 to 18 cm (1- to 4-leaf stage).
(§3) Treated plants and controls were maintained in a controlled growth environment for 14 to 21 days after which time all species were compared to controls and visually evaluated. Plant response ratings, summarized in Table D, are based on a scale of 0 to 100 where 0 is no effect and 100 is complete control. A dash (-) response means no test result.

[3] = system: deadnettle (henbit deadnettle, Lamium amplexicaule); test: Test C postemergence: deadnettle
Procedure, shortened: (§4)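 Plants at the 1- to 4-leaf stage (2 to 18 cm tall), grown in pots of peat moss/vermiculite planting medium, received postemergence applications of the formulated test chemicals. After 13 to 15 days in a greenhouse, injury was scored visually versus controls from 0 (no effect) to 100 (complete control).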

[4] = system: woolly cupgrass (Eriochloa villosa); test: Test C pre-/postemergence: woolly cupgrass
Procedure, shortened: as §1

[5] = system: chamomile (scentless chamomile, Matricaria inodora); test: Test D pre-/postemergence: chamomile
Source text: as §2, §3

[6] = system: windgrass (Apera spica-venti); test: Test D pre-/postemergence: windgrass
Source text: as §2, §3

[7] = system: canarygrass (Phalaris minor); test: Test C postemergence: canarygrass
Procedure, shortened: as §4

[8] = Postemergence, 31 g ai/ha, scale 0 to 100 (0 no effect, 100 complete control)
[9] = Postemergence, 62 g ai/ha, scale 0 to 100 (0 no effect, 100 complete control)
[10] = Postemergence, 250 g ai/ha, scale 0 to 100
[11] = Postemergence, 125 g ai/ha, scale 0 to 100, 0 no effect, 100 complete control
[12] = Postemergence, 250 g ai/ha, scale 0 to 100 (0 no effect, 100 complete control)
[13] = Postemergence, 16 g ai/ha, scale 0 to 100
[14] = 31 g ai/ha, scale 0 to 100 (0 no effect, 100 complete control)
[15] = 62 g ai/ha, scale 0 to 100 (0 no effect, 100 complete control)
[16] = 125 g ai/ha, scale 0 to 100, 0 no effect, 100 complete control
[17] = Postemergence, 31 g ai/ha, scale 0 to 100
[18] = Preemergence, 31 g ai/ha, scale of 0 to 100, 0 is no effect, 100 is complete control
[19] = Preemergence, 62 g ai/ha, scale of 0 to 100, 0 is no effect, 100 is complete control
[20] = Preemergence, 125 g ai/ha, scale 0 to 100, 0 no effect, 100 complete control
[21] = Postemergence, 8 g ai/ha, scale 0 to 100
[22] = Preemergence, 250 g ai/ha, scale 0 to 100, 0 no effect, 100 complete control
[23] = Preemergence, 16 g ai/ha, scale 0 to 100 (0 no effect, 100 complete control)
[24] = Preemergence, 31 g ai/ha, scale 0 to 100 (0 no effect, 100 complete control)
[25] = Preemergence, 62 g ai/ha, scale 0 to 100
[26] = Preemergence, 125 g ai/ha, scale 0 to 100
[27] = Preemergence, 250 g ai/ha, scale 0 to 100

Cc1nn(-c2ccnc(C(F)(F)F)c2)nc1Cc1ccnc(C(F)(F)F)c1 [Compound 137]
Plant response rating, Cocklebur [1, 8]: 45
Plant response rating, Cocklebur [1, 9]: 50
Plant response rating, Cocklebur [1, 10]: 60
Plant response rating: Wheat, Spring [2, 8]: 5
Plant response rating: Wheat, Spring [2, 9]: 10
Plant response rating: Wheat, Spring [2, 11]: 20
Plant response rating: Wheat, Spring [2, 12]: 25
Plant response rating, Wheat, Spring [2, 13]: 0
Plant response rating, Deadnettle [3, 14]: 80
Plant response rating, Deadnettle [3, 15]: 95
Plant response rating, Deadnettle [3, 16]: 95
Plant response rating, Deadnettle ([3]; 250 g ai/ha, scale 0 to 100): 95
Plant response rating, Cupgrass, Woolly [4, 8]: 45
Plant response rating, Cupgrass, Woolly [4, 9]: 50
Plant response rating, Cupgrass, Woolly [4, 11]: 55
Plant response rating, Cupgrass, Woolly [4, 10]: 90
Plant response rating: Chamomile [5, 8]: 10
Plant response rating: Chamomile [5, 9]: 15
Plant response rating: Chamomile [5, 11]: 20
Plant response rating: Chamomile [5, 12]: 40
Plant response rating, Chamomile [5, 13]: 0
Plant response rating: Windgrass [6, 9]: 40
Plant response rating: Windgrass [6, 11]: 50
Plant response rating: Windgrass [6, 12]: 80
Plant response rating, Windgrass [6, 13]: 10
Plant response rating, Windgrass [6, 17]: 20
Plant response rating, Canarygrass [7, 14]: 45
Plant response rating, Canarygrass [7, 15]: 60
Plant response rating, Canarygrass [7, 16]: 70
Plant response rating, Canarygrass ([7]; 250 g ai/ha, scale 0 to 100): 75

Cc1nn(-c2ccc(F)c(F)c2)nc1Oc1ccnc(C(F)(F)F)c1 [Compound 145]
Plant response rating, Cocklebur [1, 8]: 10
Plant response rating, Cocklebur [1, 9]: 15
Plant response rating, Cocklebur [1, 11]: 65
Plant response rating, Cocklebur [1, 10]: 65
Plant response rating, Cocklebur [1, 18]: 0
Plant response rating, Cocklebur [1, 19]: 0
Plant response rating, Cocklebur [1, 20]: 10
Plant response rating: Wheat, Spring [2, 8]: 10
Plant response rating: Wheat, Spring [2, 9]: 20
Plant response rating: Wheat, Spring [2, 11]: 25
Plant response rating, Wheat, Spring [2, 21]: 5
Plant response rating, Wheat, Spring [2, 13]: 5
Plant response rating, Deadnettle [3, 14]: 100
Plant response rating, Deadnettle [3, 15]: 100
Plant response rating, Deadnettle [3, 16]: 100
Plant response rating, Deadnettle ([3]; 250 g ai/ha, scale 0 to 100): 100
Plant response rating, Cupgrass, Woolly [4, 8]: 20
Plant response rating, Cupgrass, Woolly [4, 9]: 25
Plant response rating, Cupgrass, Woolly [4, 11]: 40
Plant response rating, Cupgrass, Woolly [4, 10]: 75
Plant response rating, Cupgrass, Woolly [4, 18]: 55
Plant response rating, Cupgrass, Woolly [4, 19]: 90
Plant response rating, Cupgrass, Woolly [4, 20]: 95
Plant response rating, Cupgrass, Woolly [4, 22]: 98
Plant response rating: Chamomile [5, 8]: 10
Plant response rating: Chamomile [5, 9]: 10
Plant response rating: Chamomile [5, 11]: 30
Plant response rating, Chamomile [5, 21]: 0
Plant response rating, Chamomile [5, 13]: 0
Plant response rating: Windgrass [6, 9]: 60
Plant response rating: Windgrass [6, 11]: 80
Plant response rating, Windgrass [6, 21]: 5
Plant response rating, Windgrass [6, 13]: 10
Plant response rating, Windgrass [6, 17]: 35
Plant response rating, Canarygrass [7, 14]: 15
Plant response rating, Canarygrass [7, 15]: 40
Plant response rating, Canarygrass [7, 16]: 50
Plant response rating, Canarygrass ([7]; 250 g ai/ha, scale 0 to 100): 90

CCOc1nn(-c2ccc(F)cc2)nc1Cc1ccnc(C(F)F)c1 [Compound 195]
Plant response rating, Cocklebur [1, 10]: 50
Plant response rating, Cocklebur [1, 20]: 0
Plant response rating: Wheat, Spring [2, 8]: 10
Plant response rating: Wheat, Spring [2, 9]: 20
Plant response rating: Wheat, Spring [2, 11]: 25
Plant response rating: Wheat, Spring [2, 12]: 35
Plant response rating, Wheat, Spring [2, 13]: 5
Plant response rating, Wheat, Spring [2, 23]: 0
Plant response rating, Wheat, Spring [2, 24]: 0
Plant response rating, Wheat, Spring [2, 25]: 0
Plant response rating, Wheat, Spring [2, 26]: 0
Plant response rating, Wheat, Spring [2, 27]: 0
Plant response rating, Deadnettle [3, 14]: 100
Plant response rating, Deadnettle [3, 15]: 100
Plant response rating, Deadnettle [3, 16]: 100
Plant response rating, Deadnettle ([3]; 250 g ai/ha, scale 0 to 100): 100
Plant response rating, Cupgrass, Woolly [4, 8]: 50
Plant response rating, Cupgrass, Woolly [4, 9]: 65
Plant response rating, Cupgrass, Woolly [4, 11]: 75
Plant response rating, Cupgrass, Woolly [4, 10]: 75
Plant response rating, Cupgrass, Woolly ([4]; Preemergence, 31 g ai/ha, scale 0 (no effect) to 100 (complete control)): 20
Plant response rating, Cupgrass, Woolly [4, 19]: 95
Plant response rating, Cupgrass, Woolly [4, 20]: 95
Plant response rating, Cupgrass, Woolly [4, 22]: 98
Plant response rating: Chamomile [5, 8]: 20
Plant response rating: Chamomile [5, 9]: 20
Plant response rating: Chamomile [5, 11]: 20
Plant response rating: Chamomile [5, 12]: 50
Plant response rating, Chamomile [5, 13]: 20
Plant response rating, Chamomile [5, 23]: 0
Plant response rating, Chamomile [5, 24]: 0
Plant response rating, Chamomile [5, 25]: 100
Plant response rating, Chamomile [5, 26]: 100
Plant response rating, Chamomile [5, 27]: 100
Plant response rating: Windgrass [6, 9]: 30
Plant response rating: Windgrass [6, 11]: 70
Plant response rating: Windgrass [6, 12]: 80
Plant response rating, Windgrass [6, 13]: 10
Plant response rating, Windgrass [6, 17]: 15
Plant response rating, Windgrass [6, 23]: 25
Plant response rating, Windgrass [6, 24]: 40
Plant response rating, Windgrass [6, 25]: 75
Plant response rating, Windgrass [6, 26]: 100
Plant response rating, Windgrass [6, 27]: 100
Plant response rating, Canarygrass [7, 14]: 40
Plant response rating, Canarygrass [7, 15]: 60
Plant response rating, Canarygrass [7, 16]: 85
Plant response rating, Canarygrass ([7]; 250 g ai/ha, scale 0 to 100): 100
